In brackets after ≈: the same amount, converted by molar mass.

Data set [1] is described as follows: physchem. The note with it: aqueous buffer, thermodynamic from solid.
The nature of data set [2]: physchem. The note with it: saline or isotonic, thermodynamic from solid.
Another data set in a line: Solubility in saline. The format is physicochemical. The conditions noted are these: for solubility: saline, saline or isotonic.
The nature of data set [3]: Solubility in artificial cerebrospinal fluid (aCSF). The conditions noted are these: Table 2, artificial CSF.
For data set [4] the following is noted: cited from earlier work.
[5] abbreviates: artificial cerebrospinal fluid (aCSF).

Regarding `NC1C2CN(c3nc4c(cc3F)c(=O)c(C(=O)O)cn4-c3ccc(F)cc3F)CC12` (stereo not shown) [7-(6-amino-3-aza-bicyclo[3.1.0]hex-3-yl)-1-(2,4-difluoro-phenyl)-6-fluoro-4-oxo-1,4-dihydro-[1,8]naphthyridine-3-carboxylic acid], the solubility in “physchem [1]” was more than 205 µg/mL.

As to `CC(Cc1ccc(OCC(=O)O)cc1)NCC(O)c1csc(C(F)(F)F)n1` (stereo not shown) [(4-{2-[2-hydroxy-2-(2-trifluoromethyl-thiazol-4-yl)-ethylamino]-propyl}-phenoxy)-acetic acid], the solubility in the data set “physchem [1]” is more than 205 µg/mL.

In turn, `CCOC(=O)C1=C(COCCNC(=O)/C=C\C(=O)O)NC(C)=C(C(=O)OC)C1c1ccccc1Cl` (stereo not shown) [(Z)-4-[(2-{[4-(2-chlorophenyl)-3-(ethoxycarbonyl)-5-(methoxycarbonyl)-6-methyl-1,4-dihydro-2-pyridinyl]methoxy}ethyl)amino]-4-oxo-2-butenoic acid] registered a solubility in the data set “physchem [1]” (MPI solution or aCSF) of more than 205 µg/mL.

Consider `CO/N=C(\C(=O)N[C@@H]1C(=O)N2C(C(=O)O)=C(CSc3nc(=O)c(=O)[nH]n3C)CS[C@H]12)c1csc(N)n1` [Ceftriaxone, ceftriaxone], for which the solubility in the data set “physchem [2]” (setting [5]) is more than 250 µg/mL; in the data set “Solubility in saline” (Table 1, saline), 205 µg/mL (≈ 370 µM); in the data set “Solubility in saline” (Table 2, saline) it was 205 µg/mL (≈ 370 µM); in “Solubility in saline” (text of Examples 8-14), 205 µg/mL (≈ 370 µM); in the data set “physchem [1]” (MPI solution or aCSF), more than 205 µg/mL; in the data set “physchem [1]” (multivalent physiologic ion (MPI) solution), not below 700 µg/mL. Besides, the “Solubility In Artificial CSF” value in data set [3] was more than 250 µg/mL.

As to `NCC(CC(=O)O)c1ccc(Cl)cc1` (stereo not shown) [baclofen], the “Concentration achieved in aCSF” value in data set [4] (differing forms of aCSF, earlier in vivo studies) is given as “less than 0.21 mg/ml”. For the same compound, the “Solubility in aqueous saline solution” value in data set [4] (extreme heating at 100° Celsius, sonication, high speed stirring, US 2006/0009523) is not above 12000 µg/mL. In data set [4] (initial dissolution in acid pH below 3.87, then base, US 2006/0009523), the “Concentration by back titration method” value is approximately 10000 µg/mL.

The compound `C=CC1=C(C(=O)O)N2C(=O)[C@@H](NC(=O)/C(=N\O)c3csc(N)n3)[C@H]2SC1` [cefdinir] displayed a solubility in “physchem [1]” of more than 205 µg/mL.

For the compound `CO/N=C(\C(=O)N[C@@H]1C(=O)N2C(C(=O)[O-])=C(C[N+]3(C)CCCC3)CS[C@H]12)c1csc(N)n1` [cefepime], the solubility is more than 78 µg/mL in “physchem [2]”; 66 µg/mL (≈ 137 µM) in the data set “Solubility in saline” (Table 2, saline); more than 205 µg/mL in the data set “physchem [1]”.

Regarding `C=CC1=C(C(=O)O)N2C(=O)[C@@H](NC(=O)/C(=N\OCC(=O)O)c3csc(N)n3)[C@H]2SC1` [cefixime], the solubility was more than 72 µg/mL in the data set “physchem [2]” (setting [5]); 55 µg/mL (≈ 121 µM) in “Solubility in saline” (Table 2, saline); more than 205 µg/mL in the data set “physchem [1]” (MPI solution or aCSF). Besides, the “Solubility In Saline” value in “Solubility in saline” (Table 2, saline) worked out at 68 µg/mL (≈ 150 µM). The “Solubility In Artificial CSF” value in data set [3] is more than 80 µg/mL.

`COCC1=C(C(=O)O)N2C(=O)[C@@H](NC(=O)/C(=N\OC)c3csc(N)n3)[C@H]2SC1` [cefpodoxime] showed a solubility in “physchem [1]” of more than 205 µg/mL.

As for `CC(=O)OCC1=C(C(=O)O)N2C(=O)[C@@H](NC(=O)CSc3ccncc3)[C@H]2SC1` [cephaprine], the “Solubility In Saline” value in “Solubility in saline” (Table 2, saline) was determined as 1000 µg/mL (≈ 2360 µM). Also, the “Solubility In Artificial CSF” value in data set [3] is more than 1200 µg/mL.

The solubility is the dissolved amount per volume that the medium holds. Read a high solubility as a readily soluble substance.

These data come from patent publication US9192672B2, “Zwitterion solution for low-volume therapeutic delivery” (Wayne State University Board of Governors, priority 2007, dated 2015).
